Results from ChEMBL document CHEMBL3507680, “University of Dundee, Gates Library screen for HepG2 cell viability”.

Experiment: Human HepG2 cell viability assay in 384 well format
Type: toxicity, cell-based
Parameters: dose 125 nL, time 70.5 hour; concentration not given beside the values
Settings: HepG2 cells, read-out: Inhibition

Compound | cytotoxicity at 70.5 h [%]
CCNC(=O)[C@@H]1C[C@H](N)CN1C(=O)C1(c2ccc(OC)cc2)CCCC1 | -10.3
CCCn1cc(C(=O)NC(C(=O)O)c2ccccc2C(F)(F)F)c(C)n1 (stereo unspecified) | -8.7
Cc1cc(=O)[nH]c(SC(C)C(=O)N2CCC(NS(C)(=O)=O)CC2)n1 (stereo unspecified) | 2.17
O=C(CCc1ccccc1)N1C[C@@H]2CN(Cc3ccoc3)CCO[C@@H]2C1 | -11.8
COc1ccccc1CC(NC(=O)N1CCOCC1)C(C)C (stereo unspecified) | 17.3
O=C(CSc1ccc2c(c1)OCCO2)NS(=O)(=O)c1cccs1 | -6.92
CCN(C)Cc1nc(-c2ccccc2NS(C)(=O)=O)oc1C | -10.5
O=C(CN1CCCC(c2ccn[nH]2)C1)Nc1nc2c(s1)CCCC2 (stereo unspecified) | 1.65
Cc1cc(C(F)(F)F)cc(=O)n1Cc1nc(C(C)C)no1 | -14.9
O=C(c1ccco1)N1CC[C@@H]2O[C@@H](COCCN3CCCC3)CC[C@@H]21 | -3.08
Cc1ccc(N(CCC#N)C(=O)CN2CCCC2c2cccs2)cc1 (stereo unspecified) | -2.42
Cc1ccc(-c2noc(C3CCN3C(=O)c3ccc(=O)[nH]n3)n2)s1 (stereo unspecified) | -4.22
COCCN1CCc2ncc(CNc3cc(N(C)C)ncn3)n2CC1 | -8.47
CC(C)N(C)Cc1nnc2n1CCN(S(=O)(=O)C1CC1)CC2 | -0.847
Cc1ccc(CN2CCOC3(COCCN(Cc4ccncc4)C3)C2)o1 (stereo unspecified) | -13.7
CCc1cnc(N2CCCOC(CN3CCCC3)C2)nc1 (stereo unspecified) | 7.5
COc1ccc(C)cc1CC(=O)NS(=O)(=O)c1ccc(C(N)=O)cc1 | -6.98
CCCC(=O)N(CCCN1CCOCC1)c1nc2c(C)ccc(Cl)c2s1 | -3.12
CCc1nccn1C1CCCN(C(=O)CCc2nc(C(C)C)no2)C1 (stereo unspecified) | -1.73
CCCc1nc(CNC2(c3nccs3)CCCC2)cs1 | 4.59
O=C(NCCNc1cnccn1)NCC1CCS(=O)(=O)C1 (stereo unspecified) | -7.83
COC(=O)C(c1cc(F)ccc1F)N(C)C(=O)c1cccnc1O (stereo unspecified) | 0.116
CC(C)c1noc(CCNC(=O)NCC2COc3ccccc3O2)n1 (stereo unspecified) | -11.6

Compound | cytotoxicity at 70.5 h [%]
CCOC(=O)[C@@H]1CN2CCNC[C@@H]2[C@H]1c1ccccc1 | -7.39
Cc1cnn(CC2CN(CC(=O)Nc3nnc(C)s3)CCO2)c1 (stereo unspecified) | -9.05
CN(Cc1nnc(C2CC2)n1C)C1CCN(Cc2nccn2C)C1 (stereo unspecified) | 2.78
CCc1cc(CNC(=O)N2CCC(Cc3cnn(C)c3)C2)on1 (stereo unspecified) | -4.1
c1nc2c(c(N3CCCC(Cn4cncn4)C3)n1)CCC2 (stereo unspecified) | -7.36
c1cc(CNCC2CNc3ccnn3C2)cc(OC2CCCCC2)n1 (stereo unspecified) | -7.62
Cc1nccn1CCCn1c(=O)cnc2ccccc21 | -10.5
CC(C)CCN1CCN(C(=O)c2ccc(=O)[nH]n2)CC1 | -7.24
COc1cc(CCC(=O)NCC2CC2)ccc1OCC(F)(F)F | -11.6
Cc1nc2sc(C(=O)N3CCNC(=O)C3)c(C)c2c(=O)[nH]1 | -4.68
Cc1ccc(N2CCCN(C(=O)c3cccc4c3ccn4C)CC2)nn1 | -7.32
N#Cc1ccc(CN2CCCN(CCCn3cncn3)CC2)cc1 | 3.01
COc1ccc([C@@H]2CN(Cc3cccnc3N)C[C@H]2NC(C)=O)cc1 | -8.12
CCN1CC(CN(C)Cc2nc(-c3cccc(Cl)c3)oc2C)CC1=O (stereo unspecified) | -6.94
Cc1nc(CN(C)C(=O)CN(C)C)nc2c1CCC(=O)N2CCC(C)C | -0.759
Cn1nc(C(=O)N2CCC(Oc3ccc(C#N)cn3)CC2)ccc1=O | -11
CN(C)C(=O)N1CCC2(CCCN(CCOc3ccccc3)C2)C1 (stereo unspecified) | -14.6
CC(C)c1cc(CN(C)C(=O)CN2CCC(C(N)=O)CC2)no1 | -14.7
Cc1cccc(CN2C[C@@H](F)[C@@H](OCc3nc4ccccc4[nH]3)C2)n1 | -1.57
CCNC(=O)[C@@H]1C[C@H](N)CN1c1cc(C(F)(F)F)nc(N(C)C)n1 | 37.1
COc1cc2nc3n(c(=O)c2cc1OC)CCN(C)CC3 | 3.41
O=S1(=O)CCC(c2nc(-c3cccc(Br)c3)no2)C1 (stereo unspecified) | -8.75
Cc1noc(CNC(=O)N2CCN(c3nc(C)c(C)s3)CC2)n1 | -3.61

Compound | cytotoxicity at 70.5 h [%]
CCOCCN1CCN(CC(O)c2ccc(OC)cc2)CC1 (stereo unspecified) | 36.2
O=C(N[C@@H]1CN(Cc2ccc3c(c2)OCO3)[C@@H]2CCCO[C@@H]21)C1CC1 | 8.84
Cn1c(CN2CCCC(Cn3cc(CCO)nn3)C2)cc2ccccc21 (stereo unspecified) | -0.291
Cc1nn(C)c(C)c1C1CCCN1CC(=O)Nc1ccncc1 (stereo unspecified) | -7.94
Cc1[nH]nc2ncc(C(=O)N3CCCC3c3noc(C(C)C)n3)cc12 (stereo unspecified) | -19.5
CCN1CCOCC12CCN(c1cnccn1)CC2 | -7.58
Cc1ccc(C(C(=O)O)N2CCCN(Cc3ccccn3)CC2)c(F)c1 (stereo unspecified) | -4.69
Fc1cnc(N2CCO[C@H]3CN(CC4CCCCC4)C[C@H]32)nc1 | 17.9
COCC(=O)NCc1cc(=O)n2c(n1)CN(Cc1cccs1)CCC2 | -6.99
CC(NC(=O)C1=NN(C)C(=O)CC1)c1ccc(Cl)cc1Cl (stereo unspecified) | -3.67
CNC(=O)[C@H]1C[C@@H]2CN(Cc3ccc(OC)cc3)C[C@H]1O2 | -4.08
c1cc(N2CCC(CN3CCOCC3)CC2)c2sccc2n1 | 0.228
Cn1c(CN2CCCCC2)cc(=O)c(O)c1CN1CCCCC1 | 2.14
CC(C)S(=O)(=O)NCC1CCCN(C(=O)c2ccc3c(c2)OCCO3)C1 (stereo unspecified) | -1.13
Cc1cc(NC(=O)NCC(CC(C)C)N2CCOCC2)n(C)n1 (stereo unspecified) | 2.74
Cc1cc(NC(=O)CCN2CCCCC2Cn2cncn2)no1 (stereo unspecified) | -15.1
CSCC(C)(O)CNC(=O)c1cc(F)ccc1Br (stereo unspecified) | 1.71
CCS(=O)(=O)N1CCC(CSc2ccccc2)C1 (stereo unspecified) | -11.1
CCN1CCCC(CN(C)c2nccc(-c3ccc(C)nc3C)n2)C1 (stereo unspecified) | -1.39
COCCNc1cc(-c2ccccc2C(=O)O)c2cc[nH]c2n1 | -10.4
Nc1cc2c(nn1)CCN(C(=O)c1ccc(-c3ccco3)[nH]c1=O)C2 | -1.23
CCc1ncc2c(n1)CN(C(C)C(=O)N1CCOCC1)CC2 (stereo unspecified) | 17
Cc1ccc(C2CSCCN2C(=O)C2=CCCC2)o1 (stereo unspecified) | -6.86

Compound | cytotoxicity at 70.5 h [%]
N#CC1(NC(=O)CN2CCc3c(ncn3C3CC3)C2)CCCC1 | -2.71
c1ccc(-c2nc(CN3CCc4c(ncn4C4CC4)C3)cs2)cc1 | 5.22
CCc1nc(C2CCCN2c2ncc(C(F)(F)F)cc2Cl)no1 (stereo unspecified) | 1.13
CC(C)c1csc(C2CCCN(C(=O)c3ccc[nH]3)C2)n1 (stereo unspecified) | -4.24
CC(NC(=O)N1CCNC(=O)CC1)c1ccc(OC(F)F)cc1 (stereo unspecified) | -8.12
CCCc1ncc(CN(CCOC)Cc2cccs2)cn1 | -1.12
CN(Cc1ccoc1)C(=O)C1(Oc2ccc(Cl)cc2)CCNCC1 | -6.31
CC(C)CC1(C(=O)NCCc2nncn2C2CC2)CCC1 | -3.78
COCCN1CCOCC12CCN(c1cnccn1)CC2 | -6.94
CS(=O)(=O)NC[C@]12COC[C@H]1CN(C(=O)CC1CCCC1)C2 | -13.4
CC(C)CCc1nc(CNCC2CCCN2c2cccnn2)cs1 (stereo unspecified) | 12.1
CCCNC(=O)c1nn(CC)cc1NC(=O)C(C)n1ncc(Cl)c1C (stereo unspecified) | -5.37
COc1ccccc1OCc1cc(C(=O)N2CCCCCC2CO)n[nH]1 (stereo unspecified) | 8.73
O=C(COCc1ccccc1Cl)N1CCN(c2ncccn2)CC1 | 6.02
Cc1ccc(Br)cc1C(=O)Nc1cc(C(N)=O)n(C)c1 | -8.22
Cc1cccc(C(=O)NCC2CCS(=O)(=O)C2)n1 (stereo unspecified) | -1.5
CCCn1ncc(C(=O)NCc2n[nH]c3c2CCCCC3)c1C | -13.2
O=C(O)C1CCCN1c1nc(-c2ccc(Cl)cc2)cc(C(F)(F)F)n1 (stereo unspecified) | -3.11
CC1CCCCN1C(=O)c1ccc2c(c1)OCCCO2 (stereo unspecified) | 10.5
CCCn1c(C)c(CC(=O)NCC(C)O)c2c1CC(C)(C)CC2=O (stereo unspecified) | 2.45
Cc1ccc(CN2C[C@@H]3COC[C@@H](NS(C)(=O)=O)[C@@H]3C2)o1 | -18.3
CC(=O)N1CCC(c2cc(Nc3ncccn3)nc(C)n2)C1 (stereo unspecified) | -6.88
CC1CCN(c2ccc(C(=O)N3CCCC3c3nncn3C)cn2)CC1 (stereo unspecified) | 8.02

Compound | cytotoxicity at 70.5 h [%]
COCCn1cc(NC(=O)NCC(c2cccc(F)c2)N(C)C)cn1 (stereo unspecified) | -2.22
CCc1ccc(CN2CCNC(C(=O)N3CCN(C)CC3)C2)nc1 (stereo unspecified) | -0.217
Cc1nn(C)c(N(C)C)c1CNCCS(C)(=O)=O | 20.1
CN1C(=O)COc2cc(NC(=O)CCc3nc4cccnc4[nH]3)ccc21 | -11.3
CCn1c(C)nnc1CN(C)C1CCN(CCc2ccncc2)C1 (stereo unspecified) | -3.16
CCC(CO)N(Cc1ccsc1)Cc1ccccc1C#N (stereo unspecified) | -11.3
CC(C)(C)c1c[nH]c([C@@H]2COCCN2C2CCCCC2)n1 | -0.143
O=C(N1CCCC1)N1CC[C@H]2[C@H]1CCN2c1ncccn1 | -3.91
CC1CCCCN1Cc1ccc(-c2ccccc2C(=O)O)cc1 (stereo unspecified) | 0.911
O=C(CSC1=NS(=O)(=O)c2cc(F)ccc2N1)Nc1cccc(Cl)c1 | -2.86
Cc1nc(NC(=O)NC2CC(=O)N(C)C2)nn1C(C)C (stereo unspecified) | 2.26
CN(Cc1nc2ccccc2c(=O)[nH]1)C1CC(=O)N(C2CC2)C1=O (stereo unspecified) | -12.1
Cc1noc(C)c1CCC(=O)N[C@@H]1CC[C@@H](Oc2cccnc2)[C@@H]1O | -3.66
O=C(NCC1CCC2(CC1)OCCO2)c1cccc(-n2cccn2)c1 | 19.6
CN1CCCN(C(=O)NCc2cccnc2-n2cccn2)CC1 | -0.342
CC(C)c1nc(CN2CCOC(Cn3cncn3)C2)no1 (stereo unspecified) | -8.23
Cc1cc(C)n(CC2(CNC(=O)C(c3ccc(F)cc3)N(C)C)CC2)n1 (stereo unspecified) | -1.88
CN1CC=C(c2noc(CCC(=O)N3CCOCC3)n2)CC1 | -5.23
Cc1nc(C(C)NC(=O)c2cn(Cc3ccc(Cl)cc3)nn2)n[nH]1 (stereo unspecified) | -1.77
